Assay results reported in US8722849B2, “Polypeptides” (Novo Nordisk A/S, priority 2011, dated 2014).
≈ marks a conversion by molar mass, not a printed value. Where two headings read alike, the source gives them in different places. Starred links: 1 amine or outer side, 2 acyl side, 3 side chain; linkers in the order of their positions; H or OH if unused. Positions of bridges follow the written chain, without caps; N, C: chain ends. Residues, ends and D or L forms follow the SMILES beside them. *: point of attachment. C20 diacid = O=C(O)CCCCCCCCCCCCCCCCCCC(=O)*; C18 diacid = O=C(O)CCCCCCCCCCCCCCCCC(=O)*; γGlu = O=C(O)[C@H](CCC(=O)[*:2])N[*:1]

Columns and labels:
[1] = target: T1, rat calcitonin (a) receptor (Rattus norvegicus, UniProt P32214); test: Assay (II)b functional cAMP FlashPlate assay, rat calcitonin receptor; type: cell-based; conditions: Table 11; read-out: CTa receptor rat EC50
T1 construct: expressed in transfected cells; host or cells: BHK tk'ts 13
T1 sequence (P32214 25-479 isoform P32214-2 limits assumed): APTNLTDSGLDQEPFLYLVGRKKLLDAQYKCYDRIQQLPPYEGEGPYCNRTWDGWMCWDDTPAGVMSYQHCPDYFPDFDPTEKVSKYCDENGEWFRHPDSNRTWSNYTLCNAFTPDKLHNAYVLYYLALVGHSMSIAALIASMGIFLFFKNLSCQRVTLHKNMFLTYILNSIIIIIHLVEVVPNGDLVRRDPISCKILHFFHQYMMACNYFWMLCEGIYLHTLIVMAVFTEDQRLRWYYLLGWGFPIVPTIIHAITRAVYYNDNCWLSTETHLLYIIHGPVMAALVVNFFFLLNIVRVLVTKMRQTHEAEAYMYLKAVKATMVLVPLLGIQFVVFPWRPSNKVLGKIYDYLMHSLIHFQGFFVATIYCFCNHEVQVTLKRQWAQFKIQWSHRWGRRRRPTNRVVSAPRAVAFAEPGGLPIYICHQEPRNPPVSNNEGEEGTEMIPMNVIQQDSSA
Procedure, shortened: (§1)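 BHK tk'ts 13 cells transiently transfected with rat calcitonin(a) receptor, alone or with rat RAMP3 (amylin 3(a)), were stimulated 24 hours later with sample for 30 min in buffer containing IBMX. cAMP measured by competitive radioactive FlashPlate assay, scintillation read after 3 h detection incubation.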

[2] = Assay (IV) determination of solubility; type: physicochemical
Procedure, shortened: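 Polypeptide in water (~500 nmol/ml stock) was mixed 1:1 with 100 mM buffers from pH 3.0 to 8.0 (glycylglycine pH 3.0–5.0; bistrispropane pH 6.0–8.0). After 18 hours at room temperature, samples were centrifuged and the polypeptide remaining in solution was quantified by HPLC.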

[3] = target: T2, rat amylin 3(a) receptor (rat calcitonin(a) receptor + rat RAMP3) (Rattus norvegicus, UniProt P32214+Q9JJ73); test: Assay (II)b functional cAMP FlashPlate assay, rat amylin receptor; type: cell-based; conditions: Table 11
T2 construct: expressed in transfected cells; host or cells: BHK tk'ts 13
T2 sequence (P32214 25-479 isoform P32214-2 limits assumed): T1 sequence (P32214 25-479 isoform P32214-2 limits assumed)
T2 sequence (Q9JJ73 23-147 partner): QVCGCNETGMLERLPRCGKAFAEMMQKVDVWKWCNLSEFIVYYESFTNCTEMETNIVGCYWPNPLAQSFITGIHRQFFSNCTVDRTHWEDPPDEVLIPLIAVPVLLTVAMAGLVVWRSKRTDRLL
Procedure, shortened: as §1

[4] = target: T3, human amylin receptor (amylin 3(a) receptor: human calcitonin receptor + RAMP-3) (Homo sapiens, UniProt O60896+P30988); test: Assay (II)a functional CRE-luciferase assay, human amylin receptor; type: cell-based; conditions: Table 2; BHK amylin 3(a)-receptor/CRE-luc cells
T3 construct: expressed in transfected cells; host or cells: BHK570
T3 sequence (P30988 25-474): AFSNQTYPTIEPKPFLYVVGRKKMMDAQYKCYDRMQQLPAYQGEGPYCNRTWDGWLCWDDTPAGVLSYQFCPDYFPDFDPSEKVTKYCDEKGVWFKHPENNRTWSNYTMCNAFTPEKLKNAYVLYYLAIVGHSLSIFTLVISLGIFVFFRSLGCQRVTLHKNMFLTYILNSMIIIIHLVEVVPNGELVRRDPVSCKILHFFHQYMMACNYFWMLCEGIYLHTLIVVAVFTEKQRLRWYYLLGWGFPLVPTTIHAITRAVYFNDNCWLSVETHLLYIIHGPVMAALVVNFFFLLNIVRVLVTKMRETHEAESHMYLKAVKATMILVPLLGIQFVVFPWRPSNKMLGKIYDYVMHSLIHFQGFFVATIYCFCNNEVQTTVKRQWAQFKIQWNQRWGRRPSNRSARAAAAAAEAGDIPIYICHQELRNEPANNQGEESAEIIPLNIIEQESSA
T3 sequence (O60896 24-148 partner): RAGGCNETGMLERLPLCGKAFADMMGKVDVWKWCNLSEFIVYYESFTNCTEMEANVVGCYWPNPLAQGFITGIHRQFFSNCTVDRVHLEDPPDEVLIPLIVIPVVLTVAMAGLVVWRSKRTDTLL

[5] = target: T4, human calcitonin receptor (Homo sapiens, UniProt P30988); test: Assay (II)a functional CRE-luciferase assay, human calcitonin receptor; type: cell-based; conditions: Table 7; human calcitonin (CTa) receptor
T4 construct: expressed in transfected cells; host or cells: BHK570
T4 sequence (P30988 25-474): T3 sequence (P30988 25-474)

[6] = bistrispropane buffer, pH 6, pH 6.0, read-out: Solubility pH 6.0
[7] = bistrispropane buffer, pH 6.5, pH 6.5, read-out: Solubility pH 6.5
[8] = bistrispropane buffer, pH 7, pH 7.0, read-out: Solubility pH 7.0
[9] = bistrispropane buffer, pH 7.5, pH 7.5, read-out: Solubility pH 7.5
[10] = bistrispropane buffer, pH 8, pH 8.0, read-out: Solubility pH 8.0
[11] = glycylglycine buffer, pH 3, pH 3.0, read-out: Solubility pH 3.0
[12] = glycylglycine buffer, pH 4, pH 4.0, 18 hours at room temperature, Table 2, read-out: Solubility pH 4.0
[13] = glycylglycine buffer, pH 4, pH 4.0, read-out: Solubility pH 4.0
[14] = glycylglycine buffer, pH 5, pH 5.0, read-out: Solubility pH 5.0

Row | EC50 [1] [nM] | solubility at 18 h [2, 6] [µM] | solubility at 18 h [2, 7] [µM] | solubility at 18 h [2, 8] [µM] | solubility at 18 h [2, 9] [µM] | solubility at 18 h [2, 10] [µM] | solubility at 18 h [2, 11] [µM] | solubility at 18 h [2, 12] [µM] | solubility at 18 h [2, 13] [µM] | solubility at 18 h [2, 14] [µM] | EC50 [3] [nM] | EC50 [4] [nM] | EC50 [5] [nM] | solubility at 18 h ([2]; bistrispropane buffer, pH 7, pH 7.0, 18 hours at room temperature, Table 3, read-out: Solubility pH 7.0) [µM] | Compound
1 | 0.215 | > 200 | 84 (≈ 373 µg/mL) | 74 (≈ 329 µg/mL) | 163 (≈ 724 µg/mL) | > 200 | > 200 | > 200 | > 200 | > 200 | 0.138 | 0.136 | 0.18 | – | CC[C@H](C)[C@H](NC(=O)[C@@H]1CCCN1C(=O)CNC(=O)[C@H](Cc1ccccc1)NC(=O)[C@H](CC(N)=O)NC(=O)[C@H](CC(N)=O)NC(=O)[C@H](CO)NC(=O)[C@H](CO)NC(=O)[C@H](Cc1c[nH]cn1)NC(=O)[C@@H](NC(=O)[C@H](CC(C)C)NC(=O)[C@H](Cc1ccccc1)NC(=O)[C@H](CCC(=O)O)NC(=O)[C@H](C)NC(=O)[C@H](CC(C)C)NC(=O)[C@H](CCCNC(=N)N)NC(=O)[C@H](CCC(N)=O)NC(=O)[C@@H](NC(=O)[C@H](C)NC(=O)[C@@H]1CSSC[C@H](NC(=O)[C@H](CCCCN)NC(=O)CC[C@H](NC(=O)CCCCCCCCCCCCCCCCCCC(=O)O)C(=O)O)C(=O)N[C@@H](CC(N)=O)C(=O)N[C@@H]([C@@H](C)O)C(=O)N[C@@H](C)C(=O)N[C@@H]([C@@H](C)O)C(=O)N1)[C@@H](C)O)C(C)C)C(=O)N[C@@H](CC(C)C)C(=O)N1CCC[C@H]1C(=O)N1CCC[C@H]1C(=O)N[C@H](C(=O)N[C@@H](CC(N)=O)C(=O)N[C@H](C(=O)NCC(=O)N[C@@H](CO)C(=O)N[C@@H](Cc1c[nH]cn1)C(=O)N[C@H](C(=O)N[C@@H](Cc1ccc(O)cc1)C(N)=O)[C@@H](C)O)C(C)C)[C@@H](C)O [Example 93, N-alpha-[(S)-4-Carboxy-4-(19-carboxynonadecanoylamino)butyryl]-[Glu14,His35]-pramlintide] ({C20 diacid-γGlu}-KCNTATCATQRLAEFLVHSSNNFGPILPPTNVGSHTY-NH2; disulfide 2-7 (inferred); C-terminus assumed)
2 | 0.375 | > 200 | 177 (≈ 785 µg/mL) | > 200 | > 200 | > 200 | > 200 | > 200 | > 200 | > 200 | 0.015 | 0.0425 | 0.112 | > 200 | CC[C@H](C)[C@H](NC(=O)[C@@H]1CCCN1C(=O)CNC(=O)[C@H](Cc1ccccc1)NC(=O)[C@H](CC(N)=O)NC(=O)[C@H](CC(N)=O)NC(=O)[C@H](CO)NC(=O)[C@H](CO)NC(=O)[C@H](Cc1c[nH]cn1)NC(=O)[C@H](Cc1c[nH]cn1)NC(=O)[C@H](CC(C)C)NC(=O)[C@H](Cc1ccccc1)NC(=O)[C@H](CCC(=O)O)NC(=O)[C@H](C)NC(=O)[C@H](CC(C)C)NC(=O)[C@H](CCCNC(=N)N)NC(=O)[C@H](CCC(N)=O)NC(=O)[C@@H](NC(=O)[C@H](C)NC(=O)[C@@H]1CSSC[C@H](NC(=O)[C@H](Cc2c[nH]cn2)NC(=O)CC[C@H](NC(=O)CCCCCCCCCCCCCCCCC(=O)O)C(=O)O)C(=O)N[C@@H](CC(N)=O)C(=O)N[C@@H]([C@@H](C)O)C(=O)N[C@@H](C)C(=O)N[C@@H]([C@@H](C)O)C(=O)N1)[C@@H](C)O)C(=O)N[C@@H](CC(C)C)C(=O)N1CCC[C@H]1C(=O)N1CCC[C@H]1C(=O)N[C@H](C(=O)N[C@@H](CC(N)=O)C(=O)N[C@H](C(=O)NCC(=O)N[C@@H](CO)C(=O)N[C@@H](CC(N)=O)C(=O)N[C@H](C(=O)N[C@@H](Cc1ccc(O)cc1)C(N)=O)[C@@H](C)O)C(C)C)[C@@H](C)O [Example 48, N-alpha-[(S)-4-Carboxy-4-(17-carboxyheptadecanoylamino)butyryl]-[His1,Glu14,His17]-pramlintide] ({C18 diacid-γGlu}-HCNTATCATQRLAEFLHHSSNNFGPILPPTNVGSNTY-NH2; disulfide 2-7 (inferred))
